Experimental data reported in paper PMC7827406, “Structure–Activity Relationship (SAR) Study of Spautin-1 to Entail the Discovery of Novel NEK4 Inhibitors” (International Journal of Molecular Sciences, 2021).
Where two headings read alike, the source gives them in different places.

Tests used:
Assay in all cases: biochemical
Parameters in all cases: Eurofins KinaseProfiler full panel at Km ATP, residual kinase activity (%) relative to DMSO
BrSK2(h) = biological target: T1, BrSK2(h) (Homo sapiens, UniProt Q8IWQ3)
T1 sequence (Q8IWQ3 1-736): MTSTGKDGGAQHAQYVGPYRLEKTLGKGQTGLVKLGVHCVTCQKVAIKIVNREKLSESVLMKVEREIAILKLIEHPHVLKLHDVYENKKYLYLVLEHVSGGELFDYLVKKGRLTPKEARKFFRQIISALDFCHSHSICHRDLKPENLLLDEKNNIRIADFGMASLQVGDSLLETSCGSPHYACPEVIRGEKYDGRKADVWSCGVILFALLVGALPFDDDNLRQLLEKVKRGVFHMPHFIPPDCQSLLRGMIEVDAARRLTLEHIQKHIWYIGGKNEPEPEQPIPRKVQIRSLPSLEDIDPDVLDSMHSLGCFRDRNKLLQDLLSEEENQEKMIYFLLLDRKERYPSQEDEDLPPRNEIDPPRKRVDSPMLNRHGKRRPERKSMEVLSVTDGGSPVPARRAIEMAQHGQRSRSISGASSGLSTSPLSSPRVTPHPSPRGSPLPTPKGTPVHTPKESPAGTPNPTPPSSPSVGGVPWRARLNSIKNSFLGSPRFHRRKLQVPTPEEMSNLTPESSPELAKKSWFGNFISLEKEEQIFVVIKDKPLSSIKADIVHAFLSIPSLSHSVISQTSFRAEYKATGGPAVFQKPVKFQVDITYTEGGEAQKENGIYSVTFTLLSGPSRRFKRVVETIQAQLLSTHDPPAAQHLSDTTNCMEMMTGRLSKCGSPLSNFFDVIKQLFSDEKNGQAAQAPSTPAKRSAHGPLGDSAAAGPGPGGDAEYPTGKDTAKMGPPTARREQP
Summary of the method: (§1)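 Compounds screened at 10 µM in radiometric kinase activity assays at Km ATP, reported as remaining kinase activity (%). A KINOMEscan competition-binding screen at 10 µM measured DNA-tagged kinase retained on immobilized active-site ligand by qPCR.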

[1] = biological target: T2, PI3 Kinase (p110b/p85a)(h) (Homo sapiens, UniProt P42338)
T2 construct: gene PIK3CB
T2 sequence (P42338 whole entry): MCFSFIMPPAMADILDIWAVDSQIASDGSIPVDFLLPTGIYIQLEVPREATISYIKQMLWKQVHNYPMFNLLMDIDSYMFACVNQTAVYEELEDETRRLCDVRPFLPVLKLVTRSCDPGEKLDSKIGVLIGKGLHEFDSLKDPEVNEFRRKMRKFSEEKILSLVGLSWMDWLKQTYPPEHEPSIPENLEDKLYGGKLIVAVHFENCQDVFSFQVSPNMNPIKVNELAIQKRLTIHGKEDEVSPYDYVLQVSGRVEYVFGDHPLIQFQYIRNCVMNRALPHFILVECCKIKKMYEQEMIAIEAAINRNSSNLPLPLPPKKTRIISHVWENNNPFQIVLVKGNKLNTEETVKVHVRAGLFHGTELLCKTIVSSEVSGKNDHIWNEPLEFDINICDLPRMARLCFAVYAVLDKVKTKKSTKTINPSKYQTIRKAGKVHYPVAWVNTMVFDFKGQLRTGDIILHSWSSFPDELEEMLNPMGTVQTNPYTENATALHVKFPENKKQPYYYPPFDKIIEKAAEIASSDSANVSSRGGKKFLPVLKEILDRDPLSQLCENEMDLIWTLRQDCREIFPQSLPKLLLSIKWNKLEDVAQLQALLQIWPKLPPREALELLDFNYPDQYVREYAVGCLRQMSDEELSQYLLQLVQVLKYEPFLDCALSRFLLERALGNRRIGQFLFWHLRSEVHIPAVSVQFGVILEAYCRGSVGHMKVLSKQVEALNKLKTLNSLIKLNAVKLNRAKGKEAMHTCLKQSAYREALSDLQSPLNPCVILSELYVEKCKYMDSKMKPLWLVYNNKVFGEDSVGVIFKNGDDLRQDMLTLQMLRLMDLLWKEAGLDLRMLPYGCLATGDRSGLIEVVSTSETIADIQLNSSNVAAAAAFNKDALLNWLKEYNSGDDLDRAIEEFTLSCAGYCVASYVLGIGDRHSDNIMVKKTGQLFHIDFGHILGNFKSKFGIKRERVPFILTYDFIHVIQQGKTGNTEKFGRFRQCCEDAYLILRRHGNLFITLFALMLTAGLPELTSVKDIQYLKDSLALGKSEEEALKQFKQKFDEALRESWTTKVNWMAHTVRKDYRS
T2 sequence (P27986 whole entry partner): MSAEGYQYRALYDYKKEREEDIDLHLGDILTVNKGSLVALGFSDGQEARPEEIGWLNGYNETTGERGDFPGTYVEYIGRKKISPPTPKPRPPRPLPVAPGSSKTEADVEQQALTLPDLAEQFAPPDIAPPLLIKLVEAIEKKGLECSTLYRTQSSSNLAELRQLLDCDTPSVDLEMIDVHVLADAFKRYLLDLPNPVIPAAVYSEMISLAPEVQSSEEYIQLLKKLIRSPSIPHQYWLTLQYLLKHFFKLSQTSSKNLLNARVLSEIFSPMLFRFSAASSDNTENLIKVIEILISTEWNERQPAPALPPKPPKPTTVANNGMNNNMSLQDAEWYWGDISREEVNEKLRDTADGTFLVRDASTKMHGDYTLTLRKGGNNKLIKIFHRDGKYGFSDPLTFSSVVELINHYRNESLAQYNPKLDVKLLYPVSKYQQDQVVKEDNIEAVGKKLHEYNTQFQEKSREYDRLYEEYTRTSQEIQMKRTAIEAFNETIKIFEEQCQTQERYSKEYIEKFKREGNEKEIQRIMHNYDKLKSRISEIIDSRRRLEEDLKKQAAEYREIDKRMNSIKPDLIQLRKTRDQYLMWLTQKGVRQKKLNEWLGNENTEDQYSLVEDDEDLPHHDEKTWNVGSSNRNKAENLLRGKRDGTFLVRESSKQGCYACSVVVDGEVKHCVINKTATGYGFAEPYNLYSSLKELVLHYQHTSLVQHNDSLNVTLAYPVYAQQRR
Summary of the method: as §1

EphB4(h) = biological target: T3, EphB4(h) (Homo sapiens, UniProt P54760)
T3 sequence (P54760 1-987): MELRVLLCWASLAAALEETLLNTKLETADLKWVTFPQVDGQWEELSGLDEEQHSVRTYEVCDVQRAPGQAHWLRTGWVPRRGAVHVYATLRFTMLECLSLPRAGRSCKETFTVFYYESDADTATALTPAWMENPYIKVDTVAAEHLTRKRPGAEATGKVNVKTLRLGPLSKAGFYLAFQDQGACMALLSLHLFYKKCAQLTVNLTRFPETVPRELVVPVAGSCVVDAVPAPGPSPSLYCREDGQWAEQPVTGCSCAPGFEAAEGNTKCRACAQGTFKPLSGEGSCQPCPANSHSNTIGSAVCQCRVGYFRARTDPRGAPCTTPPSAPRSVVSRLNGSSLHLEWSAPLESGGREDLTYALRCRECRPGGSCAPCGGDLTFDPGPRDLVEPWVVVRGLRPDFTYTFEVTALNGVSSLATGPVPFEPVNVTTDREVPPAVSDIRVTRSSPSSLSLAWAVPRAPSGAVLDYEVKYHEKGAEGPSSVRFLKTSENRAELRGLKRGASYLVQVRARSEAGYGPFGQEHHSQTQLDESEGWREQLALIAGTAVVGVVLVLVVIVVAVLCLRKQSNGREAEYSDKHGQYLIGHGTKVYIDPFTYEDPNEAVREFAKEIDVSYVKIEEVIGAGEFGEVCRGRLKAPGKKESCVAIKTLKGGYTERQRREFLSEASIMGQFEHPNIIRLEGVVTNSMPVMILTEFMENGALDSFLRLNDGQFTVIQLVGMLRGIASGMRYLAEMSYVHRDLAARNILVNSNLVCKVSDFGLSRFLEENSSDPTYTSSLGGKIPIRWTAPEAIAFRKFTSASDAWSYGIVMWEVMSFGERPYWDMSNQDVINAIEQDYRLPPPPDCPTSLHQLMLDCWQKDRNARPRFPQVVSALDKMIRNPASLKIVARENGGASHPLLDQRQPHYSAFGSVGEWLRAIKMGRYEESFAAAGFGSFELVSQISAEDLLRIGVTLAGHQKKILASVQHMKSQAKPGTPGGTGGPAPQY
Summary of the method: as §1

Fgr(h) = Fgr(h) (Homo sapiens, UniProt P09769)
Sequence of Fgr(h) (P09769 whole entry): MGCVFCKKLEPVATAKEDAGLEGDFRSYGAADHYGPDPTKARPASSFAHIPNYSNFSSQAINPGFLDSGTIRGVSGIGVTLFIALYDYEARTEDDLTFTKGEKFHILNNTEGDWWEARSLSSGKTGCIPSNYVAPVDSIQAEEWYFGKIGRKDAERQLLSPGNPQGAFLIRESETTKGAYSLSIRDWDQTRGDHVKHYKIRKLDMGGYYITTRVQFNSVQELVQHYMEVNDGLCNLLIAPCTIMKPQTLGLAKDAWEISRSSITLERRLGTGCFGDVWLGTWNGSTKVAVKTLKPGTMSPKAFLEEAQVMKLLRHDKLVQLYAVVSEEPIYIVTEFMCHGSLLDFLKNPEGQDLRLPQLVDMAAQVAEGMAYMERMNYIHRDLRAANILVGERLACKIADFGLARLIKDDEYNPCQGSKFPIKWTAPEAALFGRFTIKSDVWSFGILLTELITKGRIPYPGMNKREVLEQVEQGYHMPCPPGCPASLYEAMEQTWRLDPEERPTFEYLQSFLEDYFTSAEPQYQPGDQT
Summary of the method: as §1

FAK(h) = biological target: T4, FAK(h) (Homo sapiens, UniProt Q05397)
T4 construct: gene PTK2
T4 sequence (Q05397 whole entry): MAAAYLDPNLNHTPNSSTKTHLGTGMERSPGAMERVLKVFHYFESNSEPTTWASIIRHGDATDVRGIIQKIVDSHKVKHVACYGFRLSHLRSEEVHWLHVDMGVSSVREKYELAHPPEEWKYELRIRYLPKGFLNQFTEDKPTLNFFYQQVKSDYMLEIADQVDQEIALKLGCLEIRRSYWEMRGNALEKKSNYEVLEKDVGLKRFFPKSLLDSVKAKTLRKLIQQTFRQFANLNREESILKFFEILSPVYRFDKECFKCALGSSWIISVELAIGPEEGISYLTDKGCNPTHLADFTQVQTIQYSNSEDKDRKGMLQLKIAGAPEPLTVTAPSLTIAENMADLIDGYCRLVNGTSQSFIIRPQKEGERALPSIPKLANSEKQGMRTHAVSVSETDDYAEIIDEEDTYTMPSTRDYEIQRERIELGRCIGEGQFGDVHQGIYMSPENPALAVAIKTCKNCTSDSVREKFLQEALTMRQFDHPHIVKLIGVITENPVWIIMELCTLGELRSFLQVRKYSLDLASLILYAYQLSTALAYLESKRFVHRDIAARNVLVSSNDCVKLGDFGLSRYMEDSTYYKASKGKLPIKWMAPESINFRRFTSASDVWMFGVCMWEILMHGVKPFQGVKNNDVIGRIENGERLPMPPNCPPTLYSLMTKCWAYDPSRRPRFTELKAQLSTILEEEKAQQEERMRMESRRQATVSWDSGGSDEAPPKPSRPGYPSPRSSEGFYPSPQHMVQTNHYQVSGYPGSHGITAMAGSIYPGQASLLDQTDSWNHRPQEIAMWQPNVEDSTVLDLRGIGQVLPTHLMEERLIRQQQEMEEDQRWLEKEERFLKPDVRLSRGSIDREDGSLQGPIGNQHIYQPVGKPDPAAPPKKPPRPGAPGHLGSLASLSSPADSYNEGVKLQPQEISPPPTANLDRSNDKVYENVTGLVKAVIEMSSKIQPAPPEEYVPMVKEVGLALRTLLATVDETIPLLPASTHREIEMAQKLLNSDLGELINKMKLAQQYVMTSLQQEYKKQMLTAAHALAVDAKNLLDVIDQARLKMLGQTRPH
Summary of the method: as §1

ZIPK(h) = biological target: T5, ZIPK(h) (Homo sapiens, UniProt O43293)
T5 construct: gene DAPK3
T5 sequence (O43293 whole entry): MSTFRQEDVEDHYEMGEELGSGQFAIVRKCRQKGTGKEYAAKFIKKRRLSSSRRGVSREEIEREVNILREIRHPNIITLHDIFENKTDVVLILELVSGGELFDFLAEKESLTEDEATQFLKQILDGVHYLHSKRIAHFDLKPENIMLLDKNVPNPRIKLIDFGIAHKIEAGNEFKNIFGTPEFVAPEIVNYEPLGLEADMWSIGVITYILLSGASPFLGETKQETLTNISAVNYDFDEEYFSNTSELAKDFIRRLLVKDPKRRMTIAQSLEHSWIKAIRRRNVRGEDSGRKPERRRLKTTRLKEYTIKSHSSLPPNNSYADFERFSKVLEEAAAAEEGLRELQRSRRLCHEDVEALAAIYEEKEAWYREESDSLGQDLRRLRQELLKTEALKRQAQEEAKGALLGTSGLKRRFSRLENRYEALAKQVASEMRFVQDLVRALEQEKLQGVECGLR
Summary of the method: as §1

CaMKIß(h) = biological target: T6, CaMKIß(h) (Homo sapiens, UniProt Q6P2M8)
T6 construct: gene PNCK
T6 sequence (Q6P2M8 whole entry): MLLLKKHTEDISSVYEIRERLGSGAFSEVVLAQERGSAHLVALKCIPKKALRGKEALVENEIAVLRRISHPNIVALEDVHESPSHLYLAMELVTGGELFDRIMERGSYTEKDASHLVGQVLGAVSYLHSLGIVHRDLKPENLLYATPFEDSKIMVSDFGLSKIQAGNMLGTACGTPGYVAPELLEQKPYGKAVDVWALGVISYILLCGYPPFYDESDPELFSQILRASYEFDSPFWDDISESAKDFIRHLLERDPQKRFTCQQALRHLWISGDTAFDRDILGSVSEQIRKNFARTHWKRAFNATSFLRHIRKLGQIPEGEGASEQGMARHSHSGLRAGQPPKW
Summary of the method: as §1

Pim-3(h) = biological target: T7, Pim-3(h) (Homo sapiens, UniProt Q86V86)
T7 construct: gene PIM3
Summary of the method: as §1

[2] = read-out: Residual activity (%) 5ay
[3] = read-out: Residual activity (%) Spautin-1 5aa
[4] = read-out: Residual activity (%) 5at
[5] = read-out: Residual activity (%) 5as

Question: For `COc1ccc2ncnc(Nc3cccc(F)c3)c2c1` [5ay, N-(3-Fluorophenyl)-6-Methoxy-4-Quinazolinamine], which remaining activity at 10 µM (BrSK2(h); [2]) is on record?
Answer: The remaining activity at 10 µM was 42%.

Question: What about the remaining activity at 10 µM [1, 2] of the same compound?
Answer: The remaining activity at 10 µM was 103%.

Question: What about the remaining activity at 10 µM (EphB4(h); [2]) of the same compound?
Answer: The remaining activity at 10 µM was 63%.

Question: And the remaining activity at 10 µM (Fgr(h); [2])?
Answer: Its remaining activity at 10 µM is 90%.

Question: What about the remaining activity at 10 µM (FAK(h); [2]) of the same compound?
Answer: The remaining activity at 10 µM was 84%.

Question: And the remaining activity at 10 µM (ZIPK(h); [2])?
Answer: Its remaining activity at 10 µM is 108%.

Question: And the remaining activity at 10 µM (CaMKIß(h); [2])?
Answer: Its remaining activity at 10 µM is 92%.

Question: What about the remaining activity at 10 µM (Pim-3(h); [2]) of the same compound?
Answer: The remaining activity at 10 µM was 96%.

Question: For `Fc1ccc(CNc2ncnc3ccc(F)cc23)cc1` [5aa, 6-Fluoro-N-(4-fluorobenzyl)-4-Quinazolinamine], which remaining activity at 10 µM (BrSK2(h); [3]) is on record?
Answer: Its remaining activity at 10 µM is 79%.

Question: What about the remaining activity at 10 µM [1, 3] of the same compound?
Answer: The remaining activity at 10 µM was 102%.

Question: What about the remaining activity at 10 µM (EphB4(h); [3]) of the same compound?
Answer: Its remaining activity at 10 µM is 68%.

Question: And the remaining activity at 10 µM (Fgr(h); [3])?
Answer: The remaining activity at 10 µM was 112%.

Question: And the remaining activity at 10 µM (FAK(h); [3])?
Answer: The remaining activity at 10 µM was 84%.

Question: And the remaining activity at 10 µM (ZIPK(h); [3])?
Answer: The remaining activity at 10 µM was 97%.

Question: And the remaining activity at 10 µM (CaMKIß(h); [3])?
Answer: Its remaining activity at 10 µM is 85%.

Question: What about the remaining activity at 10 µM (Pim-3(h); [3]) of the same compound?
Answer: The remaining activity at 10 µM was 123%.

Question: With `Fc1ccc2ncnc(NCCc3ccc(Cl)cc3)c2c1` [5at, N-[2-(4-Chlorophenyl)Ethyl]-6-Fluoro-4-Quinazolinamine] as the compound, how does the remaining activity at 10 µM (BrSK2(h); [4]) read?
Answer: The remaining activity at 10 µM was 71%.

Question: What about the remaining activity at 10 µM [1, 4] of the same compound?
Answer: Its remaining activity at 10 µM is 93%.

Question: And the remaining activity at 10 µM (EphB4(h); [4])?
Answer: Its remaining activity at 10 µM is 68%.

Question: What about the remaining activity at 10 µM (Fgr(h); [4]) of the same compound?
Answer: The remaining activity at 10 µM was 95%.

Question: What about the remaining activity at 10 µM (FAK(h); [4]) of the same compound?
Answer: The remaining activity at 10 µM was 83%.

Question: What about the remaining activity at 10 µM (ZIPK(h); [4]) of the same compound?
Answer: The remaining activity at 10 µM was 109%.

Question: What about the remaining activity at 10 µM (CaMKIß(h); [4]) of the same compound?
Answer: The remaining activity at 10 µM was 81%.

Question: What about the remaining activity at 10 µM (Pim-3(h); [4]) of the same compound?
Answer: The remaining activity at 10 µM was 97%.

Question: For `Fc1ccc(CCNc2ncnc3ccc(F)cc23)cc1` [5as, 6-Fluoro-N-[2-(4-Fluorophenyl)Ethyl]-4-Quinazolinamine], which remaining activity at 10 µM (BrSK2(h); [5]) is on record?
Answer: Its remaining activity at 10 µM is 65%.

Question: What about the remaining activity at 10 µM [1, 5] of the same compound?
Answer: Its remaining activity at 10 µM is 99%.

Question: What about the remaining activity at 10 µM (EphB4(h); [5]) of the same compound?
Answer: Its remaining activity at 10 µM is 59%.

Question: And the remaining activity at 10 µM (Fgr(h); [5])?
Answer: The remaining activity at 10 µM was 114%.

Question: And the remaining activity at 10 µM (FAK(h); [5])?
Answer: The remaining activity at 10 µM was 88%.

Question: And the remaining activity at 10 µM (ZIPK(h); [5])?
Answer: Its remaining activity at 10 µM is 103%.

Question: What about the remaining activity at 10 µM (CaMKIß(h); [5]) of the same compound?
Answer: Its remaining activity at 10 µM is 84%.

Question: And the remaining activity at 10 µM (Pim-3(h); [5])?
Answer: Its remaining activity at 10 µM is 92%.
